Legend:
ERα = molecular target: T1, ERα (Homo sapiens, UniProt P03372); assay: ERα-specific U2OS reporter gene assay; assay type: cell-based
T1 sequence (P03372 1-595): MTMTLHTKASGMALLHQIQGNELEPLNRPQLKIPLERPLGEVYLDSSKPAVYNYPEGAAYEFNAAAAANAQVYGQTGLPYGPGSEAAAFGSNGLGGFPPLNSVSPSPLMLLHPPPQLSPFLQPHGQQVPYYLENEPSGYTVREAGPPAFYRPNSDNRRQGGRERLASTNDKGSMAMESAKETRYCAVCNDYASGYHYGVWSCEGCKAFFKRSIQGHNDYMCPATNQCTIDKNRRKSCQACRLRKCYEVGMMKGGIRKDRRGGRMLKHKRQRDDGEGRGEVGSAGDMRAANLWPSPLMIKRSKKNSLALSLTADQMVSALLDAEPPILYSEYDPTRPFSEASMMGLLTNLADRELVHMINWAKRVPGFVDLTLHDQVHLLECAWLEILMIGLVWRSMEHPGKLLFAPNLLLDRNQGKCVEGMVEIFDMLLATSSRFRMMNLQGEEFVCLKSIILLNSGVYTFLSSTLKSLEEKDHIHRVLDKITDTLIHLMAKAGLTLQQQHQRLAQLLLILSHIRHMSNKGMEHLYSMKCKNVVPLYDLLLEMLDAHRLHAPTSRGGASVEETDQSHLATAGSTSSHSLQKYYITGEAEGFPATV

ERβ = ERβ (Homo sapiens, UniProt Q92731); assay: ERβ-specific U2OS reporter gene assay; assay type: cell-based
Sequence of ERβ (Q92731 whole entry): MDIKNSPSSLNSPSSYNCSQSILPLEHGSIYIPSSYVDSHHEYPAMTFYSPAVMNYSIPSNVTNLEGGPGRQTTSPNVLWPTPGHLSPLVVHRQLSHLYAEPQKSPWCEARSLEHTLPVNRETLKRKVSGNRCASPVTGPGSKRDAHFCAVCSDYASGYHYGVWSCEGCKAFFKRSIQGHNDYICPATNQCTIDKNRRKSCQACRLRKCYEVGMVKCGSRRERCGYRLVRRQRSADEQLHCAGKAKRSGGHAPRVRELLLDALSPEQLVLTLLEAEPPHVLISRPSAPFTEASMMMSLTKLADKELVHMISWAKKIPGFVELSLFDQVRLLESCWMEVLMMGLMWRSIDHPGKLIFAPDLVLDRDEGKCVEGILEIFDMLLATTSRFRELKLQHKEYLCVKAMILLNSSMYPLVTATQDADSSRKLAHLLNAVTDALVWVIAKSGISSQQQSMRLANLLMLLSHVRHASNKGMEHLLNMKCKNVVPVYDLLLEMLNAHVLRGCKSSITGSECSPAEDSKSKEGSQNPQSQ

FLAG-ERβ = assay type: cell-based, human; details: in the presence of 1000 ng tetracycline/ml, 24 h

Row | EC50 (ERα) | Transcription of the reporter gene in the ERβ-U2OS-Luc cell line (ERβ) | SMILES | FLAG-ERβ protein expression (FLAG-ERβ)
1 | 0.14 nM | unable to induce any transcription | CCCc1c(-c2ccc(O)cc2)nn(-c2ccc(O)cc2)c1-c1ccc(O)cc1 [PPT, 4,4′,4″-(4-propyl-[1H]pyrazole-1,3,5-triyl) Tris-phenol] | –
2 | – | – | CN(C)[C@@H]1C(O)=C(C(N)=O)C(=O)[C@@]2(O)C(O)=C3C(=O)c4c(O)cccc4[C@@](C)(O)[C@H]3C[C@@H]12 [tetracycline, Tetracycline] | No detectable FLAG-ERβ protein

From PMC2527638 (Toxicological Sciences, 2008)
